Counter-ions that a name gives are not always drawn.
Columns and labels:
[1] = orally administered to rat; cited from earlier work
[2] = 60° C. temperature and 75% relative humidity; resulting in gum type or liquefied form
Text: European Patent No. 281,459 B1 and U.S. Pat. No. 4,847,265 disclose a number of acid addition salts of clopidogrel prepared using various inorganic or organic acids.

Row | Compound | LD50 [1] | Hygroscopicity [2]
1 | O=S(=O)(O)c1cccc2c(S(=O)(=O)O)cccc12 [1,5-naphthalenedisulfonic acid] | 2,420 mg/kg | 
2 | Br [hydrobromide] |  | highly hygroscopic
3 | hydrochloride |  | highly hygroscopic

Reference: US7470707B2, “Crystalline monohydrate clopidogrel naphthalenedisulfonate and process of preparation” (Hanmi Pharm. Co., Ltd, priority 2004, dated 2008)
